“Also recorded” adds a separate entry of the source.
What was measured:
[1] = in vivo; cited from earlier work
[2] = tested on: sAPP secretion; assay: sAPP secretion / alpha-secretase APP processing; format: cell-based; conditions: 0.1 nM bryostatin-1
[3] = tested on: PKC; assay: Protein kinase C assay in cultured hippocampal neurons; format: cell-based, Rat
Protocol: Cells were homogenized by sonication (5 sec, 25 W) in 100 μl of 10 mM Tris-HCl pH 7.4 buffer containing 1 mM EGTA, 1 mM PMSF, and 50 mM NaF. Homogenate was transferred to a polyallomer centrifuge tube and was centrifuged at 100,000×g for 10 min at 4°. The supernatant was removed and immediately frozen on dry ice. The particulate fraction was resuspended by sonication in 100 μl of the same buffer and stored at −80°. To measure PKC, 10 μl of cytosol or particulate fraction was incubated for 15 min at 37° in the presence of 10 μM histones, 4.89 mM CaCl2, 1.2 μg/μl phosphatidyl-L-serine, 0.18 μg/μl 1,2-dioctanoyl-sn-glycerol, 10 mM MgCl2, 20 mM HEPES (pH 7.4), 0-8 mM EDTA, 4 mM EGTA, 4% glycerol, 8 μg/ml aprotinin, 8 μg/ml leupeptin, and 2 mM benzamidine. 0.5 μCi [γ^32P]ATP was added and ^32P-phosphoprotein formation was measured by adsorption onto phosphocellulose as described previously (25). This assay was used with slight adjustments for either Hermissenda nervous system homogenates or cultured mammalian neuron homogenates
(§1) Rat hippocampal H19-7/IGF-IR cells (ATCC) were plated onto poly-L-lysine coated plates and grown at 35° in DMEM/10% FCS for several days until approx. 50% coverage was obtained. The cells were then induced to differentiate into a neuronal phenotype by replacing the medium with 5 ml N2 medium containing 10 ng/ml basic fibroblast growth factor and grown in T-25 flasks at 39° C. (26). Various concentrations of bryostatin (0.01-1.0 nM) were then added in 10 μl aqueous solution. After a specified interval, the medium was removed and the cells were washed with PBS, removed by gentle scraping, and collected by centrifugation at 1000 rpm for 5 min.
To further examine biochemical consequences of repeated exposures to bryostatin, rat hippocampal neurons were studied after they had been immortalized by retroviral transduction of temperature sensitive tsA5CSV40 large T antigen (25). These differentiate to have a neuronal phenotype when induced by basic fibroblast growth factor in N2 medium (26) and express a normal complement of neuronal proteins, including PKC.

[4] = tested on: Rat hippocampal H19-7/IGF-IR cells; assay: Protein synthesis by [35S]Methionine incorporation; format: cell-based; conditions: single 30-minute exposure to 0.28 nM bryostatin
Protocol: FIG. 17 depicts the effects of bryostatin on protein synthesis. Rat IGF-IR cells were incubated for 30 minutes with 0.28 nM bryostatin for incubation times ranging from 1 to 79 hours. [^35S]Methionine (9.1 μCi) was then added to the medium followed by analysis of radiolabel.
as §1
In fact, we found here that a single 30-minute exposure to 0.28 nM bryostatin increased overall protein synthesis (FIG. 17), measured by incorporation of ^35-S Methionine in the last ½ hour before collecting the neurons, by 20% within 24 h, increasing to 60% by 79 hours after the bryostatin exposure.

[5] = tested on: sAPP secretion; conditions: human fibroblasts; cited from earlier work
[6] = tested on: Hermissenda Crassicornis; assay: Pavlovian conditioning of Hermissenda (retention of conditioned response); format: in vivo; conditions: for concentration that inhibited acquisition and behavioral retention: all training conditions tested
Protocol: Bryostatin exposure—Specimens of Hermissenda Crassicornis were maintained in artificial sea water (ASW) at 15° for three days in perforated 50-ml conical centrifuge tubes before starting experiments. Bryostatin, purified from the marine bryozoan Bugula neritina, was dissolved in EtOH and diluted to its final concentration in ASW. […] For selected experiments lactacysteine (10 μM) or anisomycin was added to the ASW.
Bryostatin effects on Hermissenda behavior and biochemistry were produced by adding the drug to the bathing medium within an 8 cm long, 1 cm diameter test tube housing each individual animal.
Pavlovian conditioning of Hermissenda involves repeated pairings of a neutral stimulus, light, with an unconditioned stimulus, orbital shaking. (See, Lederhendler et al. (24) and Epstein et al. (6)). A rotation/shaking stimulus excites the statocyst hair cells and thereby elicits an unconditioned response: a brisk contraction of the muscular undersurface called a foot, accompanied by adherence or “clinging” to the surface that supports the foot. Before conditioning, light elicits a weakly positive phototaxis accompanied by lengthening of the foot. After sufficient light-rotation pairings, light no longer elicits phototaxis, but instead elicits a new response (24): the “clinging” and foot shortening previously elicited only by the unconditional stimulus (FIG. 1). Thus, the meaning of the unconditioned stimulus, rotation or orbital shaking, has been transferred to the conditioned stimulus and is manifested by a light-elicited foot contraction—a negative change of foot length. This conditioned response to light can last for weeks, is not produced by randomized light and rotation, is stimulus-specific, and shares the other defining characteristics of mammalian Pavlovian Conditioning.
Pavlovian conditioning of Hermissenda has well-defined training parameters that produce progressively longer-lasting retention of the learned conditioned response. Two training events (2 TE) of paired light and orbital shaking (see “Methods”), for example, induce a learned conditioned response (light-elicited foot contraction or shortening) that persists without drug treatment for approximately 7 minutes. Four to six training events (4-6 TE) induce a conditioned response that persists up to several hours, but disappears approximately by 1 day after training. Nine TE produces long-term associative memory lasting many days and often up to two weeks.

[7] = single bryostatin 0.28 nM for 30 minutes

In the case of `CCC/C=C/C=C/C(=O)O[C@H]1/C(=C/C(=O)OC)C[C@H]2C[C@H]([C@@H](C)O)OC(=O)C[C@H](O)C[C@@H]3C[C@H](OC(C)=O)C(C)(C)[C@](O)(C[C@@H]4C/C(=C/C(=O)OC)C[C@H](/C=C/C(C)(C)[C@]1(O)O2)O4)O3` [bryostatin, bryostatin-1], the “rat spatial maze learning” value [1] is listed as “enhanced”, the sAPP secretion [2] is listed as “dramatic increase of sAPP secretion” and the “cytosolic PKC activity” value ([3]; first 4 hours after single bryostatin exposure) is listed as “no significant alteration; also recorded: not altered”. The “effect of second exposure on downregulation of membrane-bound PKC” value ([3]; second 30-minute exposure after 2- to 4-hour delay) was “eliminated the significant downregulation; also recorded: significantly attenuates the downregulation”, the “cytosolic PKC activity” value ([3]; second bryostatin exposure delayed until 4 hours after the first) was “increased above baseline” and the “cytosolic PKC activity” value ([3]; second bryostatin exposure within 2 hr of the first) was “significant reduction of PKC activity”. For the same molecule, the “membrane-bound PKC after brief translocation” value [3, 7] was “prolonged downregulation”, the “translocation of PKC from cytosol to particulate fraction” value [3, 7] was “approx 60%” and the “increase of overall protein synthesis” value ([4]; by 79 hours) was 60%. For the same molecule, the “increase of overall protein synthesis” value ([4]; within 24 h) was 20%, the “alpha-secretase cleavage of APP to sAPP” value [5] was “activate the alpha-secretase” and the retention ([6]; 2-TEs with two bryostatin exposures) was “more than one week”. For the same molecule, the “retention of behavioral conditioning tested after 4 h” value ([6]; 2-paired TEs, bryostatin 0.25 ng/ml from 10-min dark adaptation and 4 h thereafter) was “demonstrated retention of the behavioral conditioning”, the memory retention ([6]; 2 TE plus bryostatin, 4 hours during and after training) was “lasting hours; also recorded: several hours” and the memory retention ([6]; 4 TEs plus bryostatin) was over 24 h. The memory duration ([6]; 6 TE with bryostatin (only hours without)) was “many days”, the memory retention ([6]; 4 hour bryostatin on the day preceding training and on the day of 2 TE) was “more than one day” and the retention ([6]; 20 h pre-exposure to bryostatin 0.25 ng/ml, 4-paired TE) was “persisted”. For the same molecule, the retention ([6]; 20 hr bryostatin 0.25 ng/ml exposure, 2-paired TE) was at most 48 h, the “low doses that markedly enhanced memory” value ([6]; after 2, 4, or 6 training trials) was 0.1 to 0.25 ng/mL and the “concentration that inhibited acquisition and behavioral retention” value [6] was “greater than 1.0 ng/ml”. The “concentration that inhibited acquisition and behavioral retention” value ([6]; listed as Bryostatin) was at least 1.0 ng/mL, the “conditioned response (foot contraction) tested at 4 h” value ([6]; bryostatin 0.25 ng/ml before 6-TE conditioning and 4 hours thereafter) was “produced a positive CR” and the “effect on retention performance” value ([6]; bryostatin <0.50 ng/ml, 9-paired TEs) was “no demonstrable effects on retention performance”. The “memory retention versus 4 hour exposures” value ([6]; bryostatin exposure for 8 to 20 hours followed by 2 TE) was “not sufficient”, the “behavioral retention lost after” value ([6]; bryostatin only 4 h, 2-paired TEs 24 hrs later) was at most 24 h and the conditioned response ([6]; randomized presentations of light and rotation, with bryostatin) was “produced no conditioned response”. For the same molecule, the “long-term retention (tested with CS alone at 4 h, then 24-h intervals)” value ([6]; sub-optimal 4- and 6-paired TEs, bryostatin 0.25 ng/ml from dark adaptation and for 4 hours) was “all demonstrated long-term retention”, the “concentrations that augment acquisition and memory retention” value ([6]; sub-optimal (4 TE) training) was under 0.50 ng/mL and the “long-term retention (LTR) post-training” value ([6]; three successive days of 4-h bryostatin 0.25 ng/ml, one day later 2-TEs) was at least 96 h. For the same molecule, the long-term retention ([6]; two successive days of 4-h bryostatin 0.25 ng/ml, 2-paired TEs) was “at least 6 days”.

From patent US8703812B2, “Protein synthesis required for long-term memory is induced by PKC activation on days preceding associative learning” (Blanchette Rockefeller Neurosciences Institute, priority 2005, dated 2014)
